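How tested: cells in 96-well plates exposed to compound for 48 hours at five concentrations. The concentration for 50% growth inhibition is given as GI50.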 Active and inactive are the calls of the source. Rule as the data show it: active = GI50 up to about 1.1 µM and inactive = higher.
Experiments:
Assay in all cases: NCI-60 cell line screen, 48 h
[1] = tested on: 786-0
[2] = tested on: A498
[3] = tested on: EKVX
[4] = tested on: HCC 2998
[5] = tested on: HL-60
[6] = tested on: LOX IMVI
[7] = tested on: LXFL 529
[8] = tested on: NCI-H23
[9] = tested on: NCI-H460
[10] = tested on: NCI-H522
[11] = tested on: OVCAR-8
[12] = tested on: SF-268
[13] = tested on: SK-MEL-5
[14] = tested on: SN12C
[15] = tested on: SNB-19
[16] = tested on: TK-10
[17] = tested on: UACC-257
[18] = tested on: BT-549
[19] = tested on: NCI-H226
[20] = tested on: NCI/ADR-RES

SMILES | GI50 [1] | GI50 [2] | GI50 [3] | GI50 [4] | GI50 [5] | GI50 [6] | GI50 [7] | GI50 [8] | GI50 [9] | GI50 [10] | GI50 [11] | GI50 [12] | GI50 [13] | GI50 [14] | GI50 [15] | GI50 [16] | GI50 [17] | GI50 [18] | GI50 [19] | GI50 [20]
COC(=O)CCC1CCc2c(OC)ccc(OC)c2C1=O (configuration not stated) | > 100 µM (inactive) | > 10 µM (inactive) | > 100 µM (inactive) | > 100 µM (inactive) | > 100 µM (inactive) | > 100 µM (inactive) | > 100 µM (inactive) | > 100 µM (inactive) | > 100 µM (inactive) | > 100 µM (inactive) | > 100 µM (inactive) | > 100 µM (inactive) | > 100 µM (inactive) | > 100 µM (inactive) | > 100 µM (inactive) | > 100 µM (inactive) | > 100 µM (inactive) | – | – | –
Nc1ccc(Sc2c3ccccc3nc3ccccc23)cc1 | 5.48 µM (inactive) | 68.5 µM (inactive) | 23 µM (inactive) | 24.4 µM (inactive) | 2.96 µM (inactive) | 5.62 µM (inactive) | 7.96 µM (inactive) | 17.7 µM (inactive) | 20.4 µM (inactive) | 6.15 µM (inactive) | 13.8 µM (inactive) | 18.5 µM (inactive) | 16.6 µM (inactive) | 18.5 µM (inactive) | 22.1 µM (inactive) | 13.4 µM (inactive) | 16.6 µM (inactive) | 14.3 µM (inactive) | 18.7 µM (inactive) | 7.73 µM (inactive)
Cc1nc2ccccc2c(=O)n1NC(=S)Nc1cccc(Cl)c1 | > 100 µM (inactive) | > 100 µM (inactive) | – | – | > 100 µM (inactive) | 65.5 µM (inactive) | > 100 µM (inactive) | > 100 µM (inactive) | > 100 µM (inactive) | 33.7 µM (inactive) | > 100 µM (inactive) | > 100 µM (inactive) | > 100 µM (inactive) | > 100 µM (inactive) | – | > 100 µM (inactive) | > 100 µM (inactive) | – | > 100 µM (inactive) | –
[N-]=[N+]=NC1C2CC3CC(C2)CC1C3 (configuration not stated) | > 100 µM (inactive) | > 100 µM (inactive) | > 100 µM (inactive) | > 100 µM (inactive) | – | > 100 µM (inactive) | > 100 µM (inactive) | > 100 µM (inactive) | > 100 µM (inactive) | > 100 µM (inactive) | > 100 µM (inactive) | – | > 100 µM (inactive) | > 100 µM (inactive) | > 100 µM (inactive) | > 100 µM (inactive) | > 100 µM (inactive) | – | > 100 µM (inactive) | –
O=C(Nc1ccc(S(=O)(=O)N[C@@H](C(=O)O)c2ccccc2)cc1)c1ccc(F)cc1 | > 100 µM (inactive) | > 100 µM (inactive) | > 100 µM (inactive) | > 100 µM (inactive) | – | > 100 µM (inactive) | > 100 µM (inactive) | > 100 µM (inactive) | > 100 µM (inactive) | > 100 µM (inactive) | > 100 µM (inactive) | > 100 µM (inactive) | > 100 µM (inactive) | > 100 µM (inactive) | > 100 µM (inactive) | > 100 µM (inactive) | > 100 µM (inactive) | – | – | –
COc1cc([C@@H]2c3cc4c(cc3[C@@H](NC(=O)c3cccc([N+](=O)[O-])c3)C3COC(=O)[C@@H]32)OCO4)cc(OC)c1O (some centres not stated) | 0.202 µM (active) | – | 1.25 µM (inactive) | 0.608 µM (active) | 0.274 µM (active) | 0.295 µM (active) | 10.3 µM (inactive) | 0.189 µM (active) | < 0.01 µM (active) | – | 0.721 µM (active) | 0.552 µM (active) | 0.452 µM (active) | 0.211 µM (active) | 0.366 µM (active) | 2.25 µM (inactive) | 6.18 µM (inactive) | – | 0.127 µM (active) | –
COc1ccc(C(=O)C(c2ccc(OC)cc2)C2OC(=O)C(Cl)=C2Cl)cc1 (configuration not stated) | > 100 µM (inactive) | – | > 100 µM (inactive) | > 100 µM (inactive) | > 100 µM (inactive) | > 100 µM (inactive) | > 100 µM (inactive) | > 100 µM (inactive) | > 100 µM (inactive) | > 100 µM (inactive) | 84.1 µM (inactive) | > 100 µM (inactive) | > 100 µM (inactive) | > 100 µM (inactive) | > 100 µM (inactive) | > 100 µM (inactive) | > 100 µM (inactive) | – | > 100 µM (inactive) | –
O/N=C/c1cc2c(cc1Br)OCO2 | > 100 µM (inactive) | > 100 µM (inactive) | > 100 µM (inactive) | > 100 µM (inactive) | > 100 µM (inactive) | > 100 µM (inactive) | > 100 µM (inactive) | > 100 µM (inactive) | > 100 µM (inactive) | > 100 µM (inactive) | > 100 µM (inactive) | – | > 100 µM (inactive) | > 100 µM (inactive) | > 100 µM (inactive) | > 100 µM (inactive) | > 100 µM (inactive) | – | > 100 µM (inactive) | –
OCC(O)C(OC1OC(CO)C(O)C(O)C1O)c1nn(-c2ccc(Cl)cc2)c2nc3cc(Cl)c(Cl)cc3nc12 (configuration not stated) | > 100 µM (inactive) | > 100 µM (inactive) | > 100 µM (inactive) | > 100 µM (inactive) | – | > 100 µM (inactive) | > 100 µM (inactive) | > 100 µM (inactive) | > 100 µM (inactive) | > 100 µM (inactive) | > 100 µM (inactive) | > 100 µM (inactive) | – | > 100 µM (inactive) | > 100 µM (inactive) | > 100 µM (inactive) | > 100 µM (inactive) | – | – | –
C[C@]12CCC(=O)C=C1CC[C@@H]1C2CC[C@@]2(C)C1CC[C@@H]2OC(=O)C12OC1CCC2=O (some centres not stated) | 16.5 µM (inactive) | 18 µM (inactive) | 15.5 µM (inactive) | 20.3 µM (inactive) | 6.9 µM (inactive) | 16 µM (inactive) | 14.8 µM (inactive) | 18.8 µM (inactive) | 17.9 µM (inactive) | 10.7 µM (inactive) | 17.9 µM (inactive) | 20 µM (inactive) | 16.2 µM (inactive) | 23.2 µM (inactive) | 19.6 µM (inactive) | 20 µM (inactive) | 18 µM (inactive) | – | 19.1 µM (inactive) | –
CC(C)(C)c1nc2c(o1)C(=O)c1ccccc1C2=O | 2.75 µM (inactive) | 6.21 µM (inactive) | 2.68 µM (inactive) | 4.25 µM (inactive) | 0.718 µM (active) | 0.394 µM (active) | 6.44 µM (inactive) | 0.373 µM (active) | 3.82 µM (inactive) | 1.43 µM (inactive) | 0.92 µM (active) | 2.47 µM (inactive) | 0.437 µM (active) | 0.959 µM (active) | 5.19 µM (inactive) | 5.65 µM (inactive) | 0.519 µM (active) | 1.51 µM (inactive) | 3.3 µM (inactive) | 0.447 µM (active)
COC(=O)C12C3C4C1C1C2C3C41C(=O)OC(C)(C)C (configuration not stated) | > 100 µM (inactive) | > 100 µM (inactive) | > 100 µM (inactive) | – | > 53.8 µM (inactive) | > 42.9 µM (inactive) | > 100 µM (inactive) | > 100 µM (inactive) | > 63.5 µM (inactive) | > 100 µM (inactive) | > 81.3 µM (inactive) | > 100 µM (inactive) | > 100 µM (inactive) | > 100 µM (inactive) | > 100 µM (inactive) | > 100 µM (inactive) | > 100 µM (inactive) | – | > 100 µM (inactive) | –
COC(=O)C(C(=O)C(=O)Nc1cccc(O)c1)c1nc2ccc(Cl)cc2nc1O (configuration not stated) | > 100 µM (inactive) | > 100 µM (inactive) | 48.9 µM (inactive) | > 100 µM (inactive) | > 100 µM (inactive) | > 100 µM (inactive) | > 100 µM (inactive) | > 100 µM (inactive) | > 100 µM (inactive) | – | > 100 µM (inactive) | > 100 µM (inactive) | > 100 µM (inactive) | > 100 µM (inactive) | > 100 µM (inactive) | > 100 µM (inactive) | > 100 µM (inactive) | – | 71.6 µM (inactive) | –
Cc1cc2c(=O)cc(-c3ccc(C(F)(F)F)cc3)oc2c(C(=O)O)c1C | > 100 µM (inactive) | – | > 100 µM (inactive) | – | – | > 100 µM (inactive) | > 100 µM (inactive) | > 100 µM (inactive) | > 100 µM (inactive) | > 100 µM (inactive) | > 100 µM (inactive) | > 100 µM (inactive) | > 100 µM (inactive) | > 100 µM (inactive) | > 100 µM (inactive) | > 100 µM (inactive) | > 100 µM (inactive) | – | > 100 µM (inactive) | –
O=S(=O)(O)C1=C2Sc3ccccc3N=C2c2ccccc2C1 | 17.5 µM (inactive) | 18.6 µM (inactive) | 13.8 µM (inactive) | 12.2 µM (inactive) | 3.76 µM (inactive) | 12.4 µM (inactive) | 12.2 µM (inactive) | 16.4 µM (inactive) | 19.5 µM (inactive) | 16.7 µM (inactive) | 16.9 µM (inactive) | 14.1 µM (inactive) | 13.2 µM (inactive) | 13.8 µM (inactive) | 22.4 µM (inactive) | 18.4 µM (inactive) | 17.1 µM (inactive) | – | 20.3 µM (inactive) | –
c1ccc(C2[C@@H]3CCCc4ccccc4C3=NN2c2ccccc2)cc1 (some centres not stated) | > 100 µM (inactive) | > 100 µM (inactive) | 46.8 µM (inactive) | > 100 µM (inactive) | 80 µM (inactive) | 40.8 µM (inactive) | 53.2 µM (inactive) | 61 µM (inactive) | > 100 µM (inactive) | 35 µM (inactive) | > 100 µM (inactive) | > 100 µM (inactive) | 18.8 µM (inactive) | > 100 µM (inactive) | > 100 µM (inactive) | > 100 µM (inactive) | > 100 µM (inactive) | – | > 100 µM (inactive) | –

— ChEMBL document CHEMBL1201862, “PubChem BioAssay data set” (2004)
